Key:
HIV-1 protease = target: T1, HIV-1 protease (Human immunodeficiency virus type 1 group M subtype B, UniProt P03369); experiment: HIV-1 PR inhibition (HPLC assay of HIV substrate IV cleavage after preincubation with inhibitor); type: biochemical
T1 construct: each of the identical 99 amino acid subunits contributes a single aspartyl residue to the catalytic site; made in house; host or cells: chemical synthesis (no expression host); obtained from Dr. Stephen Kent, The Scripps Research Institute
Protocol: Typical reactions were carried out at room temperature (25° C.) in 150 μl total volumes of 100 mM MES buffer, pH 6.2, containing 1 mM ethylenediaminetetraacetic acid (EDTA) and 2 mM dithiothreitol (DTT) plus 0.1 percent (v/v) Triton X-100.
Synthetic HIV-1 protease [0.5 μg, obtained from Dr. Stephen Kent of The Scripps Research Institute; see Cell, 1988, 54; 363-368] was first incubated in buffer with (or without) various concentrations of "inhibitor(s)" for 30 minutes at 25° C. The protease reaction was then initiated by the addition of HIV substrate IV (Bachem Bioscience Inc.) at fixed concentrations (e.g., 100 mg/ml). HIV Substrate IV has the sequence
Lys-Ala-Arg-Val-Nle-p-NO2 Phe-glu-Ala-Nle-NH2 (SEQ ID NO 15)
At three appropriate times (normally 40, 80 and 120 minutes) the hydrolysis was stopped by adding a 40 μl aliquot from the reaction to 40 μl of a prepared quench solution. The quench solution was 1:4 acetonitrile:water (3 percent trifluoroacetic acid; TFA) and contained 150 μM m-toluic acid which served as an HPLC standard. […] Reaction progress was monitored by following the increasing absorbance (peak height) of the substrate IV cleavage product detected at […]. […]

HIV-1 PR = conditions: Blumenstein et al. 1989; cited from earlier work
HIV-2 PR = conditions: Blumenstein et al. 1989; cited from earlier work

CC(C)(C)OC(=O)N[C@@H](Cc1ccccc1)C1(C)CO1 (stereo partly shown) [Example 2]
t1/2 of inactivation of the protease (HIV-1 protease; 2 mM inhibitor, preincubation, 25° C., pH 6.2): 3 h
mode of inhibition of HIV-1 PR (HIV-1 protease; preincubation with 2 mM inhibitor (FIG. 1)): competitive and timedependent inactivation

C/C=C/C/C=C/CCC(=O)[C@H]1O[C@H]1C(N)=O [cerulenin]
inhibition of HIV-1 PR (HIV-1 PR): weakly inhibit
inhibition of HIV-2 PR (HIV-2 PR): weakly inhibit

Reference: patent publication US5827827A, “HIV-1 protease inhibitors” (The Scripps Research Institute, priority 1996, dated 1998)
